Measurements published in patent US10570117B2, “Phenylimidazole compound” (Otsuka Pharmaceutical Factory, Inc., priority 2015, dated 2020).
Converted amounts (≈) assume the structure as drawn. Like-named read-outs stand apart in the source and are kept apart here.

Assays:
[1] = Solubility in gastric juice or intestinal juice model fluid (precipitation method using DMSO); assay type: physicochemical; conditions: room temperature
Experimental: Solubility in Gastric Juice or Intestinal Juice Model Fluid
Measurement was performed by a precipitation method using DMSO. Specifically, each of the dimethyl sulfoxide (DMSO) solutions of the compounds was individually added to 1st fluid for Disintegration Test of Japanese Pharmacopoeia (pH: 1.2) or 2nd fluid for Disintegration Test of Japanese Pharmacopoeia (pH: 6.8), and the mixtures were stirred by shaking at room temperature for 24 hours. Subsequently, insoluble substances in each mixture were removed by filtration, and the UV absorption of each filtrate was measured. The obtained values were individually applied to the calibration curves of the compounds prepared in advance to calculate the concentrations of the compounds dissolved (μg/mL).

[2] = pH 1.2, simulated gastric fluid, kinetic from dmso stock, 1st fluid for Disintegration Test of Japanese Pharmacopoeia (pH: 1.2), read-out: Solubility (μg/mL) 1st fluid
[3] = pH 6.8, kinetic from dmso stock, 2nd fluid for Disintegration Test of Japanese Pharmacopoeia (pH: 6.8), read-out: Solubility (μg/mL) 2nd fluid

COc1cc(OCn2cccn2)ccc1-c1c[nH]c(-c2ccc(F)nc2)n1 [Example 120]
solubility at 24 h [1, 2]: > 73 µg/mL | solubility at 24 h [1, 3]: 4 µg/mL (≈ 10.9 µM) | melting point: 172 to 175 °C

COc1cc(OCc2ccc(Br)cc2F)ccc1-c1c[nH]c(-c2ccc(F)nc2)n1 [Example 126]
solubility at 24 h [1, 2]: 7.1 µg/mL (≈ 15 µM) | solubility at 24 h [1, 3]: 5.6 µg/mL (≈ 11.9 µM) | melting point: 172 to 176 °C

COc1cc(OCc2cncc(C(F)(F)F)c2)ccc1-c1cnc(-c2ccc(F)nc2)[nH]1 [Example 137]
solubility at 24 h [1, 2]: 39.9 µg/mL (≈ 89.8 µM) | solubility at 24 h [1, 3]: 36.1 µg/mL (≈ 81.2 µM) | melting point: 210 to 212 °C (dec.)

COc1cc(OCc2ncc(C(F)(F)F)cc2F)ccc1-c1cnc(-c2ccc(F)nc2)[nH]1 [Example 139, 3-fluoro-2-[[4-(2-(6-fluoropyridin-3-yl)-1H-imidazol-5-yl)-3-methoxyphenoxy]methyl]-5-(trifluoromethyl)pyridine]
solubility at 24 h [1, 2]: 5 µg/mL (≈ 10.8 µM) | solubility at 24 h [1, 3]: < 0.3 µg/mL | melting point: > 230 °C

COc1cc(OCc2ncc(F)cc2F)ccc1-c1cnc(-c2ccc(F)nc2)[nH]1 [Example 140]
solubility at 24 h [1, 2]: 7.8 µg/mL (≈ 18.9 µM) | solubility at 24 h [1, 3]: 4.8 µg/mL (≈ 11.6 µM) | melting point: 188 to 191 °C

COc1cc(OCc2ccc(C(F)(F)F)cn2)ccc1-c1cnc(-c2ccc(C#N)nc2)[nH]1 [Example 150, 5-[5-[2-methoxy-4-((5-(trifluoromethyl)pyridin-2-yl)methoxy)phenyl]-1H-imidazol-2-yl]picolinonitrile]
solubility at 24 h [1, 2]: 2.4 µg/mL (≈ 5.32 µM) | solubility at 24 h [1, 3]: 0.3 µg/mL (≈ 0.665 µM) | melting point: 241 to 244 °C (dec.)

COc1cc(OCc2ccc(C(F)(F)F)cn2)ccc1-c1cn(C)c(-c2ccc(F)nc2)n1 [Example 151, 2-fluoro-5-[4-[2-methoxy-4-((5-(trifluoromethyl)pyridin-2-yl)methoxy)phenyl]-1-methyl-1H-imidazol-2-yl]pyridine]
solubility at 24 h [1, 2]: > 92 µg/mL | solubility at 24 h [1, 3]: 0.9 µg/mL (≈ 1.96 µM) | melting point: 168 to 171 °C

COc1cc(OCc2ccc(C(F)(F)F)cn2)ccc1-c1c(C)nc(-c2ccc(F)nc2)n1C [Example 159]
solubility at 24 h [1, 2]: > 94 µg/mL | solubility at 24 h [1, 3]: 4 µg/mL (≈ 8.47 µM) | melting point: 136 to 138 °C

COc1cc(OCc2ccc(C(F)(F)F)nc2)ccc1-c1cn(C)c(-c2ccc(F)nc2)n1 [Example 163]
solubility at 24 h [1, 2]: > 92 µg/mL | solubility at 24 h [1, 3]: 1.4 µg/mL (≈ 3.05 µM) | melting point: 163 to 165 °C

COCn1cc(-c2ccc(OCc3ccc(C(F)(F)F)cn3)cc2OC)nc1-c1ccc(F)nc1 [Example 166]
solubility at 24 h [1, 2]: > 98 µg/mL | solubility at 24 h [1, 3]: 0.6 µg/mL (≈ 1.23 µM) | melting point: 172 to 174 °C

COc1cc(OCc2ccc(C(F)(F)F)cn2)ccc1-c1cn(C)c(-c2ccc(Cl)nc2)n1 [Example 168]
solubility at 24 h [1, 2]: > 95 µg/mL | solubility at 24 h [1, 3]: < 0.3 µg/mL | melting point: 186 to 190 °C

COc1cc(OCc2ccc(C(F)(F)F)nc2)ccc1-c1[nH]c(C2CCC(F)(F)C2)nc1Cl (stereo not drawn) [Example 180]
solubility at 24 h [1, 2]: 89.1 µg/mL (≈ 183 µM) | solubility at 24 h [1, 3]: 0.4 µg/mL (≈ 0.82 µM) | melting point: 172 to 174 °C

COc1cc(OCc2ncccc2C#N)ccc1-c1[nH]c(C2CCC(F)(F)CC2)nc1Br [Example 184]
solubility at 24 h [1, 2]: 96.3 µg/mL (≈ 191 µM) | solubility at 24 h [1, 3]: 5.8 µg/mL (≈ 11.5 µM) | melting point: 160 to 161 °C

COc1cc(OCc2ccc(C(F)(F)F)nc2)c(C)cc1-c1[nH]c(C2CCC(F)(F)CC2)nc1Br [Example 187]
solubility at 24 h [1, 2]: 75.6 µg/mL (≈ 135 µM) | solubility at 24 h [1, 3]: < 0.4 µg/mL | melting point: 195 to 196 °C

COc1cc(OCc2ccc(C(F)(F)F)nc2)c(C)cc1-c1[nH]c(C2CCC(F)(F)CC2)nc1Cl [Example 192]
solubility at 24 h [1, 2]: 22.6 µg/mL (≈ 43.8 µM) | solubility at 24 h [1, 3]: 0.6 µg/mL (≈ 1.16 µM) | melting point: 175 to 178 °C

COc1cc(OCn2cccn2)ccc1-c1[nH]c(C2CCC(F)(F)CC2)nc1Cl [Example 196]
solubility at 24 h [1, 2]: > 85 µg/mL | solubility at 24 h [1, 3]: < 7.5 µg/mL | melting point: 182 to 184 °C

COc1cc(OCc2coc(C)n2)ccc1-c1[nH]c(C2CCC(F)(F)CC2)nc1Cl [Example 197]
solubility at 24 h [1, 2]: > 88 µg/mL | solubility at 24 h [1, 3]: 25.7 µg/mL (≈ 58.7 µM) | melting point: 130 to 131 °C
